The target in the experiment is T1, ABCG2 (Homo sapiens, UniProt Q9UNQ0).
T1 construct: total membranes of ABCG2-expressing High Five insect cells
T1 sequence (Q9UNQ0 1-655): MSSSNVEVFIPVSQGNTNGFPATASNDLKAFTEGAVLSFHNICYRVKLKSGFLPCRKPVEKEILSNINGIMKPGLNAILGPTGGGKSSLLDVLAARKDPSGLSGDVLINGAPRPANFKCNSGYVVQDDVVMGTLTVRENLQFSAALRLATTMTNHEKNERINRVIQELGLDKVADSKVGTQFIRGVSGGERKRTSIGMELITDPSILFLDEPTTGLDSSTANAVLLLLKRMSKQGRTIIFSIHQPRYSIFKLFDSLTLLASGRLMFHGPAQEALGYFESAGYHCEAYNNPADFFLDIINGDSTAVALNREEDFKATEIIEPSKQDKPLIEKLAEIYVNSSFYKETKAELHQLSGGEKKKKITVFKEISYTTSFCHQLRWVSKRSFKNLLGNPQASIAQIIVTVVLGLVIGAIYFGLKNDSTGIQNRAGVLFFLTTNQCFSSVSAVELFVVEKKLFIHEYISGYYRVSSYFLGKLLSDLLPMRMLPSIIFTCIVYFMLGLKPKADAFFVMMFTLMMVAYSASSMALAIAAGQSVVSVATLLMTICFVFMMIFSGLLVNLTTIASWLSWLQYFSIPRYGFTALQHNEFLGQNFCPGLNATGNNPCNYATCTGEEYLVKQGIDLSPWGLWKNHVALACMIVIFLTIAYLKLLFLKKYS
As to the kind of experiment: stimulation of vanadate-sensitive ATPase activity in ABCG2-expressing insect cell membranes; also PhA efflux inhibition in HCT-116/BCRP cells. It counts as biochemical.

The term EC50 denotes the concentration at which the effect is half-maximal. A higher EC50 goes with a need for much substance.

In the case of `COc1ccc(-c2c3occc3c(OC[C@H]3OC3(C)C)c3ccc(=O)oc23)cc1OC` [PFC, (R)-9-(3,4-dimethoxyphenyl)-4-((3,3-dimethyloxiran-2-yl)methoxy)-7H-furo [3,2-g]chromen-7-one], the EC50 is 3.8 ± 0.64 nM.
